The values that follow come from PMC7038139, “Novel Peptide CM 7 Targeted c-Met with Antitumor Activity” (Molecules, 2020).

Structures are written as SMILES. “Also recorded” adds a separate entry of the source.

Assay [1] deals with c-Met-negative MKN-28 cells. The assay can be described thus: Confocal microscope imaging of binding to MKN-28 cells. On the set-up: species or system Human. The note with it: MKN-28 cells (fixed); 1 μM, 1 h, room temperature. The protocol:
(§1) Human gastric cancer cell line MKN-45 cells were from the Chinese Academy of Medical Sciences, Beijing, China. Human gastric cancer cell line MKN-28 cells, the human glioma cell line U87 cells, and MDCK cells were obtained from the American Type Culture Collection (ATCC). The MKN-45 and MKN-28 cells were grown under a humidified atmosphere of 5% CO2 at 37 °C in RPMI 1640 medium (Biological Industries, Israel), supplemented with 10% fetal bovine serum (FBS, Biological Industries, Israel), 2 mmol/L L-glutamine (Gibco, Life Technologies, Grand Island, NY, USA), 100 U/mL penicillin, and 100 μg/mL streptomycin (Invitrogen, Carlsbad, CA, USA). MDCK and U87 cells were cultured under a humidified atmosphere of 5% CO2 at 37 °C in Dulbecco’s modified Eagle’s medium (DMEM) (Gibco, Life Technologies, Grand Island, NY, USA), supplemented with 10% FBS, 2 mmol/L L-glutamine (Gibco, Life Technologies, Grand Island, NY, USA), 100 U/mL penicillin, and 100 μg/mL streptomycin (Invitrogen, Carlsbad, CA, USA).
(§2) MKN-45 and MKN-28 cells were plated separately in a glass-bottom cell culture dish (NEST) with serum-free media overnight. The next day, cells were fixed with 4% paraformaldehyde for 20 min at room temperature. […]

Assay [2] has as its system c-Met-positive MKN-45 cells. Description: Confocal microscope imaging of binding to MKN-45 cells. On the set-up: species or system Human. Particulars: MKN-45 cells (fixed); 1 μM, 1 h, room temperature. The protocol:
as §1, §2

For assay [3], the system named is c-Met-negative MKN-28 cells. The assay can be described thus: Flow cytometry binding to c-Met-negative MKN-28 cells. The arrangement: species or system Human. Particulars: 1 μM, 1 h, room temperature. The protocol:
as §1
(§3) A flow cytometry assay was used to evaluate the conjugation and affinity of the newly designed peptides CM 7, CM 14, or FITC alone to c-Met-positive MKN-45 cells and c-Met-negative MKN-28 cells. Briefly, MKN-45 and MKN-28 cells were detached by 0.25% trypsin and the final cell concentration was adjusted to 3 × 10^6 cells/mL. […]

Assay [4] concerns c-Met-positive MKN-45 cells. Description: Flow cytometry binding to c-Met-positive MKN-45 cells. On the set-up: species or system Human. Particulars: 1 μM, 1 h, room temperature. The protocol: as §1, §3
Another assay deals with U87 cells. The assay can be described thus: Cell proliferation assay, U87 (HGF-stimulated). The class given is cell-based, human. Particulars: Crizotinib 40 nM, positive control; 20 ng/mL HGF; 4 days. The protocol: as §1
(§4) As described in the literature, MKN-45, MKN-28, and U87 cells were seeded into 48-well culture plates (6500 cells/well) and cultured overnight. […] After 4 days, the cells were trypsinized and counted by a cell counter. […]

The subject of another assay is MKN-45 cells. Description: Cell proliferation assay, MKN-45. The assay is classed as cell-based, Human. Particulars: Crizotinib 40 nM, positive control; 4 days. The protocol:
as §1, §4

The next assay concerns MKN-28 cells. Description: Cell proliferation assay, MKN-28. Particulars: Crizotinib 40 nM, positive control; 4 days. The assay is classed as cell-based, Human. The protocol: as §1, §4

Regarding `O=C1OC2(c3ccc(O)cc3Oc3cc(O)ccc32)c2ccc(N=C=S)cc21` [FITC, Fluorescein isothiocyanate isomer], the “Binding / fluorescent signal by confocal imaging” value is listed as “could not bind to MKN-45 or MKN-28 cells; also recorded: did not show any fluorescent signals” in assay [1] and “could not bind to MKN-45 or MKN-28 cells” in assay [2]. The “Binding by flow cytometry (in words)” value in assay [3] and in assay [4] was “hardly combined” each time.
Turning to `C[C@@H](Oc1cc(-c2cnn(C3CCNCC3)c2)cnc1N)c1c(Cl)ccc(F)c1Cl` [Crizotinib, reference compound], the “Inhibition of cell proliferation” value in the assay with U87 cells, in the assay on MKN-45 cells and in the assay on MKN-28 cells was “significantly inhibit” throughout.
